Measurements: patent US11136409B2, “Compositions and methods for identification, assessment, prevention, and treatment of AML using USP10 biomarkers and modulators” (Dana-Farber Cancer Institute, Inc., priority 2016, dated 2021)
Entries after “also recorded” stand apart in the source; their conditions may differ. Like-named read-outs stand apart in the source and are kept apart here.

Columns and labels:
Ba/F3-FLT3-ITD cells [1] = assay: Proliferation of Ba/F3-FLT3-ITD cells; assay type: cell-based, murine; conditions: concentration up to 20 μM; approximately 72 hours
Excerpt: (§1) Nomo-1, P31-FUJ, and NB4 were obtained from Dr. Gary Gilliland. MV4, 11 cells were obtained from Dr. Anthony Letai. Hel, K562, THP, U937, TF-1 and K052 cells were purchased from the American Type Culture Collection (ATCC) (Manassas, Va., USA). […] Cell lines were submitted for cell line authentication and were authenticated within 6 months of manuscript preparation through cell line short tandem repeat (STR) profiling (DDC Medical, Fairfield, Ohio and Molecular Diagnostics Laboratory, Dana Farber Cancer Institute). […] PBMCs were generously provided by Dr. Steven Treon and Dr. Guang Yang.
(§2) The CellTiter-Glo® assay (Promega, Madison, Wis.) was used for proliferation studies and carried out according to manufacturer instructions. Cell viability is reported as percentage of control (untreated) cells, and error bars represent the standard error of the mean for each data point.

Ba/F3-FLT3-ITD cells [2] = assay: Immunoblot of FLT3 / Beclin-1 in Ba/F3-FLT3-ITD cells; assay type: cell-based, murine; conditions: concentration up to 20 μM
Excerpt: (§3) The following antibodies were purchased from Cell Signaling Technology (Danvers, Mass.): total AKT (rabbit, #9272) and total p44/42 MAPK (Erk1/2) (3A7) (mouse, #9107) were used at 1:1000 dilution. Anti-GAPDH (D16H-11) XP (R) (rabbit mAb, #5174) was used at 1:1000 dilution. Beclin-1 (rabbit, #3738) was used at 1:1000. USP10 (D7A5) (rabbit, #8501) was used at 1:1000 dilution. P53 (rabbit, #9282) was used at 1:1000 dilution. β-tubulin (rabbit, #2146s) was used 1:1000.
(§4) FLT3/Flk-2 (C-20) (sc-479) and Ub (P4D1) (mouse, sc-8017) were purchased from Santa Cruz Biotechnology, Inc. (Dallas, Tex.) and used at 1:1000 dilution for immunoblotting. Anti-pTyr (mouse, clone 4G10) was purchased from Upstate Biotechnology (Lake Placid, N.Y.) and was used at 1:1000 dilution. Anti-HAUSP/USP7 antibody (rabbit, ab4080) and anti-ubiquitin antibody (rabbit, ab7780) were purchased from Abcam (Cambridge, Mass.) and used at 1:1000 dilution.
(§5) Protein lysate preparation, immunoblotting, and immunoprecipitation were carried out as previously described in Weisberg et al. (2002) Cancer Cell 1:433-443.

[3] = test system: primary tumor cells from FLT3-ITD positive AML patients and FLT3 mutant primagrafts; assay: Survival of primary AML patient cells and FLT3 mutant primagrafts; assay type: cell-based, human; conditions: approximately 72 hrs of treatment
Excerpt: as §2, with “The trypan blue exclusion assay has been previously described in Weisberg et al. (2002) Cancer Cell 1:433-443 and was used for quantification of cells prior to seeding for CellTiter-Glo® assays. The” for “The”
Mononuclear cells were isolated from samples from AML patients identified as harboring mutant FLT3. Cells were tested in liquid culture (DMEM supplemented with 20% FBS) in the presence of different concentrations of single and combined agents. All blood and bone marrow samples from AML patients were obtained under approval of the Dana Farber Cancer Institute Institutional Review Board.

[4] = test system: AML primagraft (D835Y+, FLT3-ITD+) cells; assay: Treatment of mutant FLT3-expressing AML primagraft cells ex vivo; assay type: cell-based, human; conditions: Homo sapiens, read-out: IC50 (+/−S.D.) AML primagraft (D835Y+, FLT3-ITD+)
Description: All animal studies were performed according to protocols approved by the Dana-Farber Cancer Institute's Institutional Animal Care and Use Committee. […] Mice were sacrificed on day 21 of treatment. Bone marrow was flushed from mouse femurs, and spleens and livers were dissected and preserved first in formalin, followed 24 hours later by preservation in 70% ethanol. […] All AML primagraft samples used in the studies described herein were obtained through the Public Repository of Xenografts (proxe.org).
as §2

USP10 [5] = molecular target: USP10 (Homo sapiens, UniProt Q14694); assay: MALDI TOF DUB assay with diubiquitin substrate; assay type: biochemical; conditions: diubiquitin (K11) as substrate
Description: Thirty-one human DUBs were freshly diluted in the reaction buffer (40 mM Tris-HCl, pH 7.6, 5 mM DTT, 0.005% BSA) at different concentrations (see Table 10). […] The enzymes were pre-incubated with the compounds for 30 min at room temperature at 10 μM final concentration. 0.48 μl of di-ubiquitin topoisomers were added to the reaction mixture to initiate the reaction. The reaction was sealed and incubated for 30 min at room temperature and stopped by adding TFA to a final concentration of 2% (v/v).
Mass spectrometry data was acquired on an UltrafleXtreme MALDI-TOF mass spectrometer (Bruker Daltonics) with Compass 1.3 control and processing software. The sample carrier was taught before each analysis to optimize and centre laser shooting. […] Samples were analysed in automatic mode (AutoXecute, Bruker Daltonics). […] An amount of 3,500 shots were summed up in “random walk” and with “large” smartbeam laser focus. Spectra were automatically calibrated on the ^15N-Ub m/z and processed using smoothing (Savitzky-Golay algorithm) and baseline subtraction (‘TopHat’) for reproducible peak annotation on non-resolved isotope distributions: one cycle, 0.2 m/z for the width. For area calculation, the complete isotopic distribution was taken into account. […]

[6] = test system: FLT3-ITD+, D835Y+ AML primagraft; assay: Primagraft study in NSG mice; assay type: in vivo; conditions: 15 mg/kg
Description: All animal studies were performed according to protocols approved by the Dana-Farber Cancer Institute's Institutional Animal Care and Use Committee. […]. Mice were sacrificed on day 21 of treatment. Bone marrow was flushed from mouse femurs, and spleens and livers were dissected and preserved first in formalin, followed 24 hours later by preservation in 70% ethanol. […]; All AML primagraft samples used in the studies described herein were obtained through the Public Repository of Xenografts (proxe.org).

[7] = test system: Ba/F3-FLT3-ITD-luc+ cells; assay: Non-invasive in vivo bioluminescence study
PBMCs = assay: Treatment of PBMCs from healthy donors with USP10-targeting inhibitors; assay type: cell-based, human; conditions: Homo sapiens
Excerpt: as §1, §2

[8] = molecular target: T1, human USP10 (residues 376-798) (Homo sapiens, UniProt Q14694); assay: In vitro USP10 activity assay (Ubiquitin-AMC); assay type: biochemical; conditions: ubiquitin-AMC as substrate; purified enzyme; read-out: USP10 biochemical IC50
T1 construct: A construct of human USP10 covering residues 376-798 in the pET28a vector; His-tag (cleaved yes); made in house; host or cells: E. coli BL21 (DE3)
Description: Protein expression and purification. A construct of human USP10 covering residues 376-798 in the pET28a vector was over-expressed in E. coli BL21 (DE3) in TB medium in the presence of […] of kanamycin. Cells were grown at 37° C. to an OD of 0.8, cooled to 17° C., induced with 500 μM isopropyl-1-thio-D-galactopyranoside, incubated overnight at 17° C., collected by centrifugation, and stored at −80° C. Cell pellets were sonicated in buffer A (50 mM HEPES (pH 7.5), 300 mM NaCl, 10% glycerol, 10 mM Imidazole, and 3 mM BME) and the resulting lysate was centrifuged at 30,000×g for 30 min. Ni-NTA beads (Qiagen) were mixed with lysate supernatant for 30 min and washed with buffer A. Beads were transferred to an FPLC-compatible column and the bound protein was washed with 15% buffer B (50 mM HEPES (pH 7.5), 300 mM NaCl, 10% glycerol, 300 mM Imidazole, and 3 mM BME) and eluted with 100% buffer B. Thrombin was added to the eluted protein and incubated at 4° C. overnight. The sample was then passed through a HiPrep 26/10 desalting column (GE Healthcare) pre-equilibrated with buffer A without imidazole, and the eluted protein was subjected to a second Ni-NTA step to remove His-tag and Thrombin. The eluent was concentrated and passed through a Superdex® 200 10/300GL column (GE Healthcare) in a buffer containing 20 mM HEPES (pH 7.5), 150 mM NaCl, and 1 mM DTT. Fractions were pooled, concentrated to 20 mg/ml, and frozen at −80° C.
In vitro USP10 activity assay. Recombinant USP10, residues 376-798, was tested for its activity in a Ubiquitin-AMC assay in presence or absence of inhibitors. For this assay, 10 nM USP10 were pre-incubated with different concentrations of inhibitors or DMSO as a control in 50 mM HEPES pH7.6, 0.5 mM EDTA, 11 uM ovalbumin, and 5 mM DTT. The reaction was incubated for 6 hours at room temperature prior to the addition of 2 uM Ubiquitin-AMC (Boston Biochem) substrate. The initial rate of the reaction was measured by collecting fluorescence data at one minute intervals over 30-minute period using a CLARIOstar® fluorescence plate reader at excitation and emission wavelength of 345 and 445 nm, respectively. The calculated initial rate values were plotted against inhibitor concentrations to determine IC50 values.

MOLM14 cells = assay: Immunoblot of FLT3, Beclin-1, AKT, ERK1/ERK2 in MOLM14 cells; assay type: cell-based, human; conditions: approximately 23 hours of treatment
Excerpt: as §3, §4, §5

USP10 [9] = assay: USP10 target engagement in cells, labeling with HA-Ub-VS; assay type: cell-based; conditions: lysates from live treated cells
Description: Cells were harvested, washed with PBS, and lysed in 1% NP-40, 10% glycerol, 2% sodium orthovanadate, and HALT protease inhibitor cocktail (ThermoFisher). Lysate was diluted to 50 ug in 30 uL lysis buffer with 1% DTT and incubated on ice for 15 minutes. 0.25 ug HA-Ub-VS was added, and the sample was gently rocked at room temperature for 30 minutes, then denatured with LDS sample buffer.

[10] = 24 hr assay, PBMC#1, read-out: IC50 (+/−S.D.) PBMC#1
[11] = 24 hr assay, PBMC#2, read-out: IC50 (+/−S.D.) PBMC#2

T1 sequence (Q14694 376-798): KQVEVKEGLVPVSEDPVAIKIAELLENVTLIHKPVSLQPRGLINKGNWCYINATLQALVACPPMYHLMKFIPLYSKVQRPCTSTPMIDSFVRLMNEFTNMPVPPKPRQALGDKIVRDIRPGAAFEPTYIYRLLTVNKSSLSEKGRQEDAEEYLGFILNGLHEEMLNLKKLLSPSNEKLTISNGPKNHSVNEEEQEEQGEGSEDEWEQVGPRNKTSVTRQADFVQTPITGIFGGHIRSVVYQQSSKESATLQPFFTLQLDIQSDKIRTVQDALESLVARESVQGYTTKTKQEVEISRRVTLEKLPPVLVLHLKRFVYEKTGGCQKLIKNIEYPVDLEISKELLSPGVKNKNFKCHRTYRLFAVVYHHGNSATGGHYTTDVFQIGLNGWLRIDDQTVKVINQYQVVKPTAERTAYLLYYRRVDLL
USP10 (Homo sapiens, UniProt Q14694), sequence (Q14694 whole entry): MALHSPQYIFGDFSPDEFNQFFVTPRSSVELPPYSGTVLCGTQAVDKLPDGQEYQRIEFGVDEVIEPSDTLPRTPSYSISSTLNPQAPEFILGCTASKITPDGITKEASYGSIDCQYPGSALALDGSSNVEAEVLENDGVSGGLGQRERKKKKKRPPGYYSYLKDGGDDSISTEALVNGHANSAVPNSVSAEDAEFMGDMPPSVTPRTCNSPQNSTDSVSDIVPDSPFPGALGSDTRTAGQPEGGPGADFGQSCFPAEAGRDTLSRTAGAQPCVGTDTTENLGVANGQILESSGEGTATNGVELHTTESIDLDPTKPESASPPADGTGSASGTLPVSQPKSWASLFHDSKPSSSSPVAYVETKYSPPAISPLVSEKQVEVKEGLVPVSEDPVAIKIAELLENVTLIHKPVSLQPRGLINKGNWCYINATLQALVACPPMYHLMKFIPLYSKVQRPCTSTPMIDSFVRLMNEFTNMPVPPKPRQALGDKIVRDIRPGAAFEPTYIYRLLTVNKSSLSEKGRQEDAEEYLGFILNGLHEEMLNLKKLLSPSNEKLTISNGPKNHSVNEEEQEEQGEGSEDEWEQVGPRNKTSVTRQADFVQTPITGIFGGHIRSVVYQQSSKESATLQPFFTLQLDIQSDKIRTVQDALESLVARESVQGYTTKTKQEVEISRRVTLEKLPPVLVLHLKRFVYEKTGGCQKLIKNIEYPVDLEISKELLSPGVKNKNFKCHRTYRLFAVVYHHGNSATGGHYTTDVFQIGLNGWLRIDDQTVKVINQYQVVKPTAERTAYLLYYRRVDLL

Row | Structure (SMILES) | Cell viability (Ba/F3-FLT3-ITD cells [1]) | FLT3 levels (Ba/F3-FLT3-ITD cells [2]) | Survival of patient samples and primagrafts [3] | IC50 ([4]; 24 h) [µM] | IC50 ([4]; 72 h) [µM] | IC50 (USP10 [5]) [µM] | Tolerability ([6]; 21-day treatment period) | Average weight loss ([6]; 21 days, same for vehicle-treated, none below 15% weight loss) [g] | Reduction in luciferase-positive signal in bone marrow versus vehicle ([7]; 50 mg/kg IP BID, 4 days) | Lower percentage of FLT3 expression in bone marrow versus vehicle ([7]; 50 mg/kg IP BID, 4 days, flow cytometry) | Vital organ toxicity ([7]; mouse studies) | Body weight versus vehicle ([7]; treated for up to 11 days) | IC50 (PBMCs; [10]) [µM] | IC50 (PBMCs; [11]) [µM] | IC50 (PBMCs; 72 hr assay, PBMC#1, read-out: IC50 (+/−S.D.) PBMC#1) [µM] | IC50 (PBMCs; 72 hr assay, PBMC#2, read-out: IC50 (+/−S.D.) PBMC#2) [µM] | IC50 [8] [µM] | IC50 ([4]; 24 hr assay) [µM] | Expression of AKT and ERK1/ERK2 downstream of FLT3 (MOLM14 cells) | Inhibitor concentration blocking USP10 labeling by HA-Ub-VS (USP10 [9])
1 | O=C(CCc1ccccc1)N1CCC(O)(Cn2cnc3cc(Cl)ccc3c2=O)CC1 [Compound 2] | little impact on cell viability | did not lead to reduced FLT3 levels | little to no effect | – | – | – | – | – | – | – | – | – | – | – | – | – | – | – | – | –
2 | CC(=O)c1cc([N+](=O)[O-])c(Sc2ccc(F)cc2F)s1 [P22077] | – | – | – | 6.9 | 2.6 | 6 | generally well-tolerated; also recorded: generally well tolerated | 2 to 3 | approximately 2 fold | approximately 2 fold | no evidence of vital organ toxicity | no significant difference in weight | 10.6 | 7.8 | 6.9 | 4.4 | 15 | – | – | –
3 | CS(=O)(=O)c1ccc(NC(=O)c2cc(C#N)c(Sc3c(Cl)cncc3Cl)s2)cc1 [1247825-37-1, reference compound] | – | – | – | – | – | – | – | – | – | – | – | – | 14.9 | 16.6 | – | – | 36 | 2.5 | unchanged | low micromolar range
